Laboratory results from patent publication US20230391768A2, “IMIDAZOPYRIDINE DERIVATIVES AND AZA-IMIDAZOPYRIDINE DERIVATIVES AS JANUS KINASE 2 INHIBITORS AND USES THEREOF” (Dana-Farber Cancer Institute, Inc., priority 2018, published 2023).

How the values were obtained:
Test in all cases: KINOMEscan
Format in all cases: binding
MYO3A = MYO3A (Homo sapiens (Human), UniProt Q8NEV4); details: read-out: percent of control
Experimental: (§1) In vitro profiling of Compound I-2 (1 μM) was performed using the DiscoveRx KINOMEscan® platform.

NEK4 = NEK4 (Homo sapiens (Human), UniProt P51957); details: read-out: percent of control
Experimental: as §1

SIK2 = SIK2 (Homo sapiens (Human), UniProt Q9H0K1); details: read-out: percent of control
Experimental: as §1

FLT3 = FLT3 (Homo sapiens (Human), UniProt P36888); details: read-out: percent of control
Experimental: as §1

LZK = LZK (Homo sapiens (Human), UniProt O43283); details: read-out: percent of control
Experimental: as §1

[1] = target: ABL1(Y253F)-phosphorylated (Homo sapiens (Human), UniProt P00519, Y253F); details: read-out: percent of control
Experimental: as §1

PIK3CA(C420R) = PIK3CA(C420R) (Homo sapiens (Human), UniProt P42336, C420R); details: read-out: percent of control
Chain of PIK3CA(C420R) (P42336 whole entry C420R): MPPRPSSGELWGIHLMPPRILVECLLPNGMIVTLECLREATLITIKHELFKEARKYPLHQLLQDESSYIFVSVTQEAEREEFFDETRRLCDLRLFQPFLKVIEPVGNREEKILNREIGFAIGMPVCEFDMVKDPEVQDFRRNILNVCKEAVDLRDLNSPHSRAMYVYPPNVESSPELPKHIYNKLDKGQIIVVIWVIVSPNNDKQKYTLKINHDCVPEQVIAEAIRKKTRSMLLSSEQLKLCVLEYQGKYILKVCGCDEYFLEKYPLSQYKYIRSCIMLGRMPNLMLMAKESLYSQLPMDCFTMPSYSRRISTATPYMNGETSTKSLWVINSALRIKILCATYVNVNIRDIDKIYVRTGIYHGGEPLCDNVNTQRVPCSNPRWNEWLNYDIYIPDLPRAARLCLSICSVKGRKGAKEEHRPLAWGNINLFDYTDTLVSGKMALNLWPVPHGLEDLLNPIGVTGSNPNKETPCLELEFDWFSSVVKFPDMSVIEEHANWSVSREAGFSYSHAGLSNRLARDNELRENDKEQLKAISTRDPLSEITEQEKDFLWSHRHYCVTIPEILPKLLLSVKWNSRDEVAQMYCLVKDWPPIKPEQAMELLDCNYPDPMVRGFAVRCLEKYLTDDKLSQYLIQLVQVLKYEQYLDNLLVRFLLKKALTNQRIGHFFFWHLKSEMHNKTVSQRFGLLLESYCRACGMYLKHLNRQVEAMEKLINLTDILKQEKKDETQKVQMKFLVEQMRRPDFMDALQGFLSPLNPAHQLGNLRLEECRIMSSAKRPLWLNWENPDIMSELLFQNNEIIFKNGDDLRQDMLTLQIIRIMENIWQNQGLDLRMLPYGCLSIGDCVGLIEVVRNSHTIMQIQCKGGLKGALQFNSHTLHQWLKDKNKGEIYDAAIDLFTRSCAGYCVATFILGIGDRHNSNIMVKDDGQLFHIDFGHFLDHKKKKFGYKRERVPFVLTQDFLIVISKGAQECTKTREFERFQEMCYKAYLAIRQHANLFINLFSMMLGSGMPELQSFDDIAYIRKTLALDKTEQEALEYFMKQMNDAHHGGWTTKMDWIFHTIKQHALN
Experimental: as §1

RIPK2 = RIPK2 (Homo sapiens (Human), UniProt O43353); details: read-out: percent of control
Experimental: as §1

MLK1 = MLK1 (Homo sapiens (Human), UniProt P80192); details: read-out: percent of control
Experimental: as §1

PIK3CA(E542K) = PIK3CA(E542K) (Homo sapiens (Human), UniProt P42336, E542K); details: read-out: percent of control
Chain of PIK3CA(E542K) (P42336 whole entry E542K): as the sequence (P42336 whole entry C420R) above, with R420C, E542K counted along it
Experimental: as §1

NEK1 = NEK1 (Homo sapiens (Human), UniProt Q96PY6); details: read-out: percent of control
Experimental: as §1

EGFR(L861Q) = EGFR(L861Q) (Homo sapiens (Human), UniProt P00533, L861Q); details: read-out: percent of control
Chain of EGFR(L861Q) (P00533 25-1210 L861Q): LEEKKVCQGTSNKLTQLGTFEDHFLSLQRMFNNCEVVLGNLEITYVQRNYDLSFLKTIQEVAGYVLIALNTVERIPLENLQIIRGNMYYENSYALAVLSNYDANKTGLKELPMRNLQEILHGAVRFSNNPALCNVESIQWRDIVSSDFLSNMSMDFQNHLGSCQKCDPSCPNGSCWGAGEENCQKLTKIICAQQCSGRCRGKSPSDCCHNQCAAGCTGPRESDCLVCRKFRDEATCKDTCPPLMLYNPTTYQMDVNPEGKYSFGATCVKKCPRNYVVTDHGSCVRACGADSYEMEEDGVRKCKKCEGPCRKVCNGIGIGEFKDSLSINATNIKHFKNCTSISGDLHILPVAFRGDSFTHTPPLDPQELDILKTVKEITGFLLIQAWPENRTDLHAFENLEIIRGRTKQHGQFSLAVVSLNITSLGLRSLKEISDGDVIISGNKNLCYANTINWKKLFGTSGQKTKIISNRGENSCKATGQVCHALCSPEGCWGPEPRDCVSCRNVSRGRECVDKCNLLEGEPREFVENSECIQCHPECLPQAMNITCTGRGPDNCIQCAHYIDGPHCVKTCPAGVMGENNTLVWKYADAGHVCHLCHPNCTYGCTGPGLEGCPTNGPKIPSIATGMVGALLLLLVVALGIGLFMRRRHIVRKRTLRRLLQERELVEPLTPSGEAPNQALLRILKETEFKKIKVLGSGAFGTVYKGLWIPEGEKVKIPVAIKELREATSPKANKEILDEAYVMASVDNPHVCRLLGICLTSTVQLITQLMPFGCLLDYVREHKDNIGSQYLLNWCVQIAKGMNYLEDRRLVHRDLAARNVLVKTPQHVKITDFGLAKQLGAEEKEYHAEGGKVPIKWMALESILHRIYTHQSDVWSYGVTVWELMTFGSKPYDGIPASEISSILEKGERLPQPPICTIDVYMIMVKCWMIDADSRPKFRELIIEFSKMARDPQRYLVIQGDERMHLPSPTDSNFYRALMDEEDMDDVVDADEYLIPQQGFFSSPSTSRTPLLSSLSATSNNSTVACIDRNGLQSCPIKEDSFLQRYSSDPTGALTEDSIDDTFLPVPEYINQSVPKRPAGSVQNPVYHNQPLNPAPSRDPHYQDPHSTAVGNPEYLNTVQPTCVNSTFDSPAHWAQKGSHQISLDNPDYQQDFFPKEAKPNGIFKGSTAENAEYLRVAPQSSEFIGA
Experimental: as §1

CLK1 = CLK1 (Homo sapiens (Human), UniProt P49759); details: read-out: percent of control
Experimental: as §1

ERK3 = ERK3 (Homo sapiens (Human), UniProt Q16659); details: read-out: percent of control
Experimental: as §1

RIOK2 = RIOK2 (Homo sapiens (Human), UniProt Q9BVS4); details: read-out: percent of control
Experimental: as §1

LOK = LOK (Homo sapiens (Human), UniProt O94804); details: read-out: percent of control
Experimental: as §1

CLK4 = CLK4 (Homo sapiens (Human), UniProt Q9HAZ1); details: read-out: percent of control
Experimental: as §1

NIK = NIK (Homo sapiens (Human), UniProt Q99558); details: read-out: percent of control
Experimental: as §1

JNK3 = JNK3 (Homo sapiens (Human), UniProt P53779); details: read-out: percent of control
Experimental: as §1

PRKCI = PRKCI (Homo sapiens (Human), UniProt P41743); details: read-out: percent of control
Experimental: as §1

BRAF(V600E) = BRAF(V600E) (Homo sapiens (Human), UniProt P15056, V600E); details: read-out: percent of control
Experimental: as §1

NDR2 = NDR2 (Homo sapiens (Human), UniProt Q9Y2H1); details: read-out: percent of control
Experimental: as §1

FLT3 (ITD) = details: 1 μM
Experimental: as §1

NLK = NLK (Homo sapiens (Human), UniProt Q9UBE8); details: read-out: percent of control
Experimental: as §1

ERK2 = ERK2 (Homo sapiens (Human), UniProt P28482); details: read-out: percent of control
Experimental: as §1

SRPK2 = SRPK2 (Homo sapiens (Human), UniProt P78362); details: read-out: percent of control
Experimental: as §1

NEK9 = NEK9 (Homo sapiens (Human), UniProt Q8TD19); details: read-out: percent of control
Chain of NEK9 (Q8TD19 whole entry): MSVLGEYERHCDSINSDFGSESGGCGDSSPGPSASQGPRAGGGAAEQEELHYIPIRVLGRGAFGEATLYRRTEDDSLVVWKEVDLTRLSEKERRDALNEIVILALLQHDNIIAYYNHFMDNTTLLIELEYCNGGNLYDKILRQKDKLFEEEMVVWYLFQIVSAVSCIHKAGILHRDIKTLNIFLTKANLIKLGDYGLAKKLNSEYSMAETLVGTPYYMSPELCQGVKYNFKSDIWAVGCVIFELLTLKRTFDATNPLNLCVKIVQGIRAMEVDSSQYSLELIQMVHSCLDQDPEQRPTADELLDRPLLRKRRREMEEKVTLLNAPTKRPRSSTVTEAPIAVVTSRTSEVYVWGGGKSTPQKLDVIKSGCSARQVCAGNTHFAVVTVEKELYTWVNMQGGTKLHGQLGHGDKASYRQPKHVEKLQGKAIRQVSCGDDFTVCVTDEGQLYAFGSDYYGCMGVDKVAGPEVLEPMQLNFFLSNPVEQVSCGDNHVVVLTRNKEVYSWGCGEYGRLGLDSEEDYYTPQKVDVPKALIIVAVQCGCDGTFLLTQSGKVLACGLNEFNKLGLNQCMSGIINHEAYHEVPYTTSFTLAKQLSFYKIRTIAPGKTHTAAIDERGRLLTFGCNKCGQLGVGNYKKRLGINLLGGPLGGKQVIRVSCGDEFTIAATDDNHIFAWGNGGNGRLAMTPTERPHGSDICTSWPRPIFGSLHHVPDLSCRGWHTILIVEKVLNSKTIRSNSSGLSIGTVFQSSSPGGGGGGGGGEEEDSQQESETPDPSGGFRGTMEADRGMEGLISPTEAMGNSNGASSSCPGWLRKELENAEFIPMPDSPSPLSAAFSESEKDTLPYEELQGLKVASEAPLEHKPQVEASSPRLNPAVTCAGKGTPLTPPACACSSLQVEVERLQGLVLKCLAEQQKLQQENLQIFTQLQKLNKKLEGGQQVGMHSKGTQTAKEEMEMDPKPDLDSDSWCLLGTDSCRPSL
Experimental: as §1

CDK9 = CDK9 (Homo sapiens (Human), UniProt P50750); details: read-out: percent of control
Experimental: as §1

[2] = target: JAK2(JH1domain-catalytic (Homo sapiens (Human), UniProt O60674)); details: read-out: percent of control
Chain of JAK2(JH1domain-catalytic (O60674 849-1124): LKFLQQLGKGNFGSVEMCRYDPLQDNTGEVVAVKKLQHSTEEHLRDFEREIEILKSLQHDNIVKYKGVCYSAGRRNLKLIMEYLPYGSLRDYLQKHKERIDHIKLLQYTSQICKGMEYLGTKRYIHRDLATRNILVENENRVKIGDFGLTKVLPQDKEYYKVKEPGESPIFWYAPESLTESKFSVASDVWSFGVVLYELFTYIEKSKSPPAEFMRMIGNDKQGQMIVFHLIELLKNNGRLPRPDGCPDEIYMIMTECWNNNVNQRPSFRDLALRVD
Experimental: as §1

MERTK = MERTK (Homo sapiens (Human), UniProt Q12866); details: read-out: percent of control
Experimental: as §1

KIT(V559D,V654A) = KIT(V559D,V654A) (Homo sapiens (Human), UniProt P10721, V559D/V654A); details: read-out: percent of control
Chain of KIT(V559D,V654A) (P10721 26-976 V559D/V654A): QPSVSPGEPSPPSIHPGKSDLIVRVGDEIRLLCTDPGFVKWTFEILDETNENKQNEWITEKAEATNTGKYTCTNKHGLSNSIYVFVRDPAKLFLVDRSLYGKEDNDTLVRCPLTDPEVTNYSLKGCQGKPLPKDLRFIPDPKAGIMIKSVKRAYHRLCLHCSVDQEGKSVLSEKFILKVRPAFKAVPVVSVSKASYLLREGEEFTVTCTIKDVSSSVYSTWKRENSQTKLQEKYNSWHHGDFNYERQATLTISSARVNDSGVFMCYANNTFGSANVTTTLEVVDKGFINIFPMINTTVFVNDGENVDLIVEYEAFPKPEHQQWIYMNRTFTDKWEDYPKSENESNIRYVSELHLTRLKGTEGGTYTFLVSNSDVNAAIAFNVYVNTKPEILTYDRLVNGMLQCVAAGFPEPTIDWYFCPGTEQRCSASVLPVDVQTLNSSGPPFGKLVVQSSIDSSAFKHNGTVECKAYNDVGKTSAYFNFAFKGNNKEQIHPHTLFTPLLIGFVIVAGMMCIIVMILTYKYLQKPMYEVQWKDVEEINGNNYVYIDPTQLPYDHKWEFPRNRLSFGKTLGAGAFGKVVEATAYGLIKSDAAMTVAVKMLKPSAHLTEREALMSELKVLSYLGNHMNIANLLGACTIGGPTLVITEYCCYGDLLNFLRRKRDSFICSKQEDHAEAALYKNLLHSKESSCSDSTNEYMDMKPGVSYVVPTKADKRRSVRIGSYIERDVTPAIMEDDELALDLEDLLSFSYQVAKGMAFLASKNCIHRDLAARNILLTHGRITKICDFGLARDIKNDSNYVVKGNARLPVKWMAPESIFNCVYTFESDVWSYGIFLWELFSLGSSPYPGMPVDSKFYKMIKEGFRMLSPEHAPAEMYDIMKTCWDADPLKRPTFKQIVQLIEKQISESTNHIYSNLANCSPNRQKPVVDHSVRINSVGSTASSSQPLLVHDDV
Experimental: as §1

HUNK = HUNK (Homo sapiens (Human), UniProt P57058); details: read-out: percent of control
Experimental: as §1

CSNK1A1L = CSNK1A1L (Homo sapiens (Human), UniProt Q8N752); details: read-out: percent of control
Experimental: as §1

FLT3 (D835H) = FLT3 (D835H) (Homo sapiens (Human), UniProt P36888, D835H); details: read-out: percent of control
Experimental: as §1

CLK2 = CLK2 (Homo sapiens (Human), UniProt P49760); details: read-out: percent of control
Chain of CLK2 (P49760 whole entry): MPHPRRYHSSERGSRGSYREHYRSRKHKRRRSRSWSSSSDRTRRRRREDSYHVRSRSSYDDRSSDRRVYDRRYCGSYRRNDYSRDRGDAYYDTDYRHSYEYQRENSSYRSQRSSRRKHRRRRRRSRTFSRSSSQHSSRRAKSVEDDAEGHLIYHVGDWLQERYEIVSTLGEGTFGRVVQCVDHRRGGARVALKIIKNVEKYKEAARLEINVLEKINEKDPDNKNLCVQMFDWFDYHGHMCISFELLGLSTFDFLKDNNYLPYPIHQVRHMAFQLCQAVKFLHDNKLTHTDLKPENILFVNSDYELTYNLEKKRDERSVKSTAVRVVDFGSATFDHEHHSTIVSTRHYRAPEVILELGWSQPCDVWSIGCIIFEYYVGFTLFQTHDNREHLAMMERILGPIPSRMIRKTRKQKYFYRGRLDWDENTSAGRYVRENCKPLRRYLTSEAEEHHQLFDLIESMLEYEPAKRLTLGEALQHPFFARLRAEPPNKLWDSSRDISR
Experimental: as §1

PIK3CA(Q546K) = PIK3CA(Q546K) (Homo sapiens (Human), UniProt P42336, Q546K); details: read-out: percent of control
Chain of PIK3CA(Q546K) (P42336 whole entry Q546K): as the sequence (P42336 whole entry C420R) above, with R420C, Q546K counted along it
Experimental: as §1

[3] = target: RSK3 (Kin.Dom.1-N-terminal) (Homo sapiens (Human), UniProt Q15349); details: read-out: percent of control
Experimental: as §1

CSNK2A2 = CSNK2A2 (Homo sapiens (Human), UniProt P19784); details: read-out: percent of control
Experimental: as §1

## CCN1CCN(Cc2cc(NC(=O)c3ccc(C)c(-c4ccc5nc(NC(=O)C6CC6)cn5n4)c3)cc(C(F)(F)F)c2)CC1 [Compound I-2, 3-(2-(cyclopropanecarboxamido)imidazo[1,2-b]pyridazin-6-yl)-N-(3-((4-ethylpiperazin-1-yl)methyl)-5-(trifluoromethyl)phenyl)-4-methylbenzamide]
MYO3A
  remaining binding at 1 µM: 85%
NEK4
  remaining binding at 1 µM: 28%
SIK2
  remaining binding at 1 µM: 100%
FLT3
  remaining binding at 1 µM: 1%
LZK
  remaining binding at 1 µM: 48%
[1]
  remaining binding at 1 µM: 0%
PIK3CA(C420R)
  remaining binding at 1 µM: 85%
RIPK2
  remaining binding at 1 µM: 89%
MLK1
  remaining binding at 1 µM: 75%
PIK3CA(E542K)
  remaining binding at 1 µM: 96%
NEK1
  remaining binding at 1 µM: 95%
EGFR(L861Q)
  remaining binding at 1 µM: 82%
CLK1
  remaining binding at 1 µM: 7.9%
ERK3
  remaining binding at 1 µM: 89%
RIOK2
  remaining binding at 1 µM: 100%
LOK
  remaining binding at 1 µM: 0%
CLK4
  remaining binding at 1 µM: 11%
NIK
  remaining binding at 1 µM: 100%
JNK3
  remaining binding at 1 µM: 85%
PRKCI
  remaining binding at 1 µM: 66%
BRAF(V600E)
  remaining binding at 1 µM: 1.7%
NDR2
  remaining binding at 1 µM: 98%
FLT3 (ITD)
  percent of control: 1.6%
NLK
  remaining binding at 1 µM: 95%
ERK2
  remaining binding at 1 µM: 100%
SRPK2
  remaining binding at 1 µM: 73%
NEK9
  remaining binding at 1 µM: 100%
CDK9
  remaining binding at 1 µM: 14%
[2]
  remaining binding at 1 µM: 7.9%
MERTK
  remaining binding at 1 µM: 0.25%
KIT(V559D,V654A)
  remaining binding at 1 µM: 6.1%
HUNK
  remaining binding at 1 µM: 80%
CSNK1A1L
  remaining binding at 1 µM: 100%
FLT3 (D835H)
  remaining binding at 1 µM: 2.2%
CLK2
  remaining binding at 1 µM: 48%
PIK3CA(Q546K)
  remaining binding at 1 µM: 76%
[3]
  remaining binding at 1 µM: 100%
CSNK2A2
  remaining binding at 1 µM: 94%

## CCN1CCN(Cc2cc(NC(=O)c3ccc(C)c(-c4ccc5nc(NC(=O)C6CC6)cn5c4)c3)cc(C(F)(F)F)c2)CC1 [Compound I-6, 3-(2-(cyclopropanecarboxamido)imidazo[1,2-a]pyridin-6-yl)-N-(3-((4-ethylpiperazin-1-yl)methyl)-5-(trifluoromethyl)phenyl)-4-methylbenzamide]
MYO3A
  remaining binding at 1 µM: 66%
NEK4
  remaining binding at 1 µM: 15%
SIK2
  remaining binding at 1 µM: 100%
FLT3
  remaining binding at 1 µM: 2.5%
LZK
  remaining binding at 1 µM: 100%
[1]
  remaining binding at 1 µM: 0.1%
PIK3CA(C420R)
  remaining binding at 1 µM: 95%
RIPK2
  remaining binding at 1 µM: 35%
MLK1
  remaining binding at 1 µM: 94%
PIK3CA(E542K)
  remaining binding at 1 µM: 100%
NEK1
  remaining binding at 1 µM: 97%
EGFR(L861Q)
  remaining binding at 1 µM: 54%
CLK1
  remaining binding at 1 µM: 20%
ERK3
  remaining binding at 1 µM: 100%
RIOK2
  remaining binding at 1 µM: 94%
LOK
  remaining binding at 1 µM: 0%
CLK4
  remaining binding at 1 µM: 28%
NIK
  remaining binding at 1 µM: 72%
JNK3
  remaining binding at 1 µM: 93%
PRKCI
  remaining binding at 1 µM: 100%
BRAF(V600E)
  remaining binding at 1 µM: 5.9%
NDR2
  remaining binding at 1 µM: 59%
FLT3 (ITD)
  percent of control: 1.4%
NLK
  remaining binding at 1 µM: 100%
ERK2
  remaining binding at 1 µM: 100%
SRPK2
  remaining binding at 1 µM: 100%
NEK9
  remaining binding at 1 µM: 92%
CDK9
  remaining binding at 1 µM: 13%
[2]
  remaining binding at 1 µM: 6.5%
MERTK
  remaining binding at 1 µM: 0.25%
KIT(V559D,V654A)
  remaining binding at 1 µM: 7.4%
HUNK
  remaining binding at 1 µM: 96%
CSNK1A1L
  remaining binding at 1 µM: 97%
FLT3 (D835H)
  remaining binding at 1 µM: 2%
CLK2
  remaining binding at 1 µM: 100%
PIK3CA(Q546K)
  remaining binding at 1 µM: 94%
[3]
  remaining binding at 1 µM: 95%
CSNK2A2
  remaining binding at 1 µM: 100%
